{
  "source": "patent US20180311505A1",
  "about": "“METHODS FOR TREATING CANCER BY ENHANCING INTRATUMORAL IMMUNE RESPONSE” (THE GENERAL HOSPITAL CORPORATION, priority 2015, published 2018)",
  "system": "parental melanoma",
  "assay": "Immune infiltrates (immunofluorescence, flow cytometry) in parental melanomas and draining lymph nodes",
  "format": "in vivo, mouse",
  "experimental": "Immunohistochemical analyses. Mouse tumors were collected 5 days after treatment initiation and formalin-fixed paraffin-embedded (FFPE). Slides were baked for 60 minutes in a 60° C. oven and loaded into the Bond III™ staining platform. Slides were antigen retrieved in Bond™ Epitope Retrieval 1 for 30 minutes at 100° C. then incubated with CD3 (Abcam™, ab16669) at 1:150 diluted in Bond™ Primary Antibody diluent for 30 minutes at room temperature. Primary antibody was detected using Bond™ Polymer Refine Detection kit, slides were developed in DAB, then dehydrated and coverslipped. For each of 3 samples per group, 3 random 20× magnification fields were chosen at the tumor center for quantification. The open-source CellProfiler™ cell image analysis software3 was used to quantify positively stained cells in each image. The analysis pipeline utilized the UnmixColors module to separate each image into one of the Hematoxylin stain and one of the DAB stain. The EnhanceOrSuppressFeatures module was applied to the DAB image to enhance cellular features. Finally, the IdentifyPrimaryObjects module was used to count the number of cells present in the enhanced image.\nImmunofluorescence analyses. […]\nFlow cytometry. […] Flow cytometry data were acquired on the BD™ LSRII flow cytometer and analyzed using FlowJo™ software (Tree Star™).",
  "data": [
    {"smiles": "CC(C)Cn1cnc2c(N)nc3ccccc3c21", "note": "[imiquimod]", "values": [
      {"measurement": "PD-L2 expression on CD11c+ dendritic cells", "setting": "draining lymph nodes, parental melanoma-bearing mice", "result": "reduced"},
      {"measurement": "granzyme B+ fraction of CD8+ TILs", "setting": "parental melanomas, imiquimod alone or with anti-PD-1 or aFP", "result": "expanded"}
    ]}
  ]
}
